Reference: patent publication US7504519B2, “Derivatives of pyrazoline, procedure for obtaining them and use thereof as therapeutic agents” (Laboratorios Del Dr. Esteve, S.A., priority 2004, dated 2009)
Structures can show the parent of a compound that is named as a salt.

Assays:
[1] = tested on: rats; assay: Analgesia test on rats (carrageenan subplantar injection, thermal stimulus, Hargreaves method); assay type: in vivo; details: analgesic activity, rat, 2.5 mg/kg i.v., compound given 3 h after carrageenan; for % activity At 30 min.: 30 min after administration; for % activity At 120 min.: 120 min after administration
Description: Biological Activity Analgesia Test on Rats
The analgesic activity of the compounds of the invention is tested as described in the publication by K. Hargreaves et al., Pain, 32. 77-88. (1988).
Briefly, the rats are transferred to the experimentation laboratory, where they remain in groups of five in Makrolon cages with barred floors to prevent coprophagy. At the start of the experiment, water and food were removed and animals weighed and labelled appropriately.
Each rat receives by subplantar injection 0.1 ml of sterile saline solution in the rear left leg, followed by 0.1 ml 2% (weight/volume) carrageenan suspension in sterile saline solution in the rear right leg.
Three hours following the subplantar injections of carrageenan and vehicle, each rat was intravenously administered with compounds to be tested, dissolved in sterile saline serum, at a dose of 1 ml per kg of body weight. Then after administration of compounds, analgesic activity values were readed. For this purpose, rats were transferred to the methacrylate chambers of an analgesimeter with a glass floor. Once the period of acclimatisation in the chambers had elapsed (i.e., after 5 minutes), an infrared radiation lamp capable of producing thermal stimulation was placed under the rats' legs. Readings of analgesic activity were taken at 15, 30, 60 and 120 minutes following administration of the products or their vehicle.
The thermal stimulus, calibrated beforehand to 10 amperes, is applied to each of the rear legs at intervals of at least 1 minute. The response of the rats to the pain consists in raising the leg, thus avoiding contact with the floor.

melting point [°C] | Compound | % activity At 30 min. [1] [%] | % activity At 120 min. [1] [%]
> 280 | O=C(NS(=O)(=O)c1ccc(N2N=C(C(F)(F)F)CC2c2ccccc2)cc1)c1ccc(C(F)(F)F)cc1 (stereo not shown) (as salt: sodium) [Compound 22, N-(4-Trifluoromethylbenzoyl)-4-(4,5-dihydro-5-phenyl-3-trifluoromethyl-pyrazole-1-yl)-benzenesulphonamide] | – | –
> 280 | CCC(=O)NS(=O)(=O)c1ccc(C2CC(C(F)(F)F)=NN2c2ccccc2)cc1 (stereo not shown) (as salt: sodium) [Compound 32, N-Propionyl-4-(4,5-dihydro-1-phenyl-3-trifluoromethyl-1H-pyrazole-5-yl)benzenesulphonamide] | – | –
– | O=C(CO)NS(=O)(=O)c1ccc(N2N=C(C(F)(F)F)CC2c2ccccc2)cc1 (stereo not shown) [Compound 3, N-(2-Hydroxyacetyl)-4-(4,5-dihydro-5-phenyl-3-trifluoromethyl-pyrazole-1-yl)-benzenesulphonamide] | 41 | 40
– | O=C(NS(=O)(=O)c1ccc(N2N=C(C(F)(F)F)CC2c2ccccc2)cc1)c1ccc(C(F)(F)F)cc1 (stereo not shown) [Compound 22, N-(4-Trifluoromethylbenzoyl)-4-(4,5-dihydro-5-phenyl-3-trifluoromethyl-pyrazole-1-yl)-benzenesulphonamide] | 72 | 76
– | COC(=O)c1ccc(NS(=O)(=O)c2ccc(N3N=C(C(F)(F)F)CC3c3ccccc3)cc2)cc1 (stereo not shown) [Compound 25, 4-[4-(4,5-dihydro-5-phenyl-3-trifluoromethyl-pyrazole-1-yl)-benzenesulphonylamine] benzoic acid methylic ester] | 67 | 66
– | COC(=O)NS(=O)(=O)c1ccc(C2CC(C(F)(F)F)=NN2c2ccccc2)cc1 (stereo not shown) [Compound 31, N-Methoxycarbonyl-4-(4,5-dihydro-1-phenyl-3-trifluoromethyl-1H-pyrazole-5-yl)benzenesulphonamide] | 76 | 49
– | CCC(=O)NS(=O)(=O)c1ccc(C2CC(C(F)(F)F)=NN2c2ccccc2)cc1 (stereo not shown) [Compound 32, N-Propionyl-4-(4,5-dihydro-1-phenyl-3-trifluoromethyl-1H-pyrazole-5-yl)benzenesulphonamide] | 72 | 51
– | CCCCOC(=O)NS(=O)(=O)c1ccc(C2CC(C(F)(F)F)=NN2c2ccccc2)cc1 (stereo not shown) [Compound 37, N-Butoxycarbonyl-4-(4,5-dihydro-1-phenyl-3-trifluoromethyl-1H-pyrazole-5-yl)benzenesulphonamide] | 68 | 75
– | N-(4-Trifluoromethyl)benzoil-4-(4,5-dihydro-1-phenyl-3-trifluoromethyl-1H-pyrazole-5-yl)benzenesulphonamide [Compound 39] | 92 | 57
– | N-Ethyloxicarbonyl-4-(4,5-dihydro-5-phenyl-3-trifluoromethyl-pyrazole-1-yl)-benzenesulphonamide [Compound 4] | 78 | 48

Compound | melting point [°C] | % activity At 30 min. [1] [%] | % activity At 120 min. [1] [%]
CCCCOC(=O)NS(=O)(=O)c1ccc(C2CC(C(F)(F)F)=NN2c2ccccc2)cc1 (stereo not shown) (as salt: sodium) [Compound 37, N-Butoxycarbonyl-4-(4,5-dihydro-1-phenyl-3-trifluoromethyl-1H-pyrazole-5-yl)benzenesulphonamide] | 223 to 230 | – | –
